Where “and” joins values, the source holds several entries; their conditions need not be identical. Equal entries are not always repeated. Where two headings read alike, the source gives them in different places.
What was measured:
tubulin [1] = test system: tubulin; set-up: method as in El-Abd et al., 2022; settings: ref El-Abd et al., 2022; read-out: Tubulin polymerization IC50; cited from earlier work
breast - MCF-7 = assay: Antiproliferative assay (MTT) MCF-7; settings: for IC50: read-out: Antiproliferative activity IC50 ± SEM (µM) MCF-7, MCF-7, MTT
[2] = test system: Bax in MDAMB-231 cancer cell line; assay: Bax level assay; type: cell-based, human; settings: MDAMB-231 cells; for Bax Fold change: relative to untreated control
Text: (§1) […]. Supplementary Appendix A provides more information.

[3] = test system: Caspase-3 in MDAMB-231 cancer cell line; assay: Caspase-3 activation assay; type: cell-based, human; settings: MDAMB-231 cells; for Caspase-3 Fold change: relative to untreated control
Text: as §1

pancreatic - MDAMB-231 = assay: Antiproliferative assay (MTT) MDAMB-231; settings: for IC50: read-out: Antiproliferative activity IC50 ± SEM (µM) MDAMB-231, MDAMB-231, MTT
- MDAMB-231 = assay: Antiproliferative assay (MTT) MDAMB-231
[4] = Cell viability assay (MTT), normal cells; type: cell-based; settings: human, MCF-10A normal mammary gland epithelial cells, four-day incubation
[5] = test system: Bcl-2 in MDAMB-231 cancer cell line; assay: Bcl-2 level assay; type: cell-based, human; settings: MDAMB-231 cells; for Bcl-2 Fold reduction: relative to untreated control
Text: as §1

prostatic - PC-3 = assay: Antiproliferative assay (MTT) PC-3; settings: for IC50: read-out: Antiproliferative activity IC50 ± SEM (µM) PC-3, PC-3, MTT
colon - HCT-116 = assay: Antiproliferative assay (MTT) HCT-116; settings: for IC50: read-out: Antiproliferative activity IC50 ± SEM (µM) HCT-116, HCT-116, MTT
[6] = test system: Caspase-9 in MDAMB-231 cancer cell line; assay: Caspase-9 activation assay; type: cell-based, human; settings: MDAMB-231 cells; for Caspase-9 Fold change: relative to untreated control
Procedure: […]. Compound 10o was the least efficient derivative as caspase-9 activators (0.90 ng/mL).
as §1

tubulin [7] = assay: Tubulin polymerization inhibition assay (Cytoskeleton kit);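 as to all read-outs here: Cell-free tubulin polymerization read by fluorescent reporter enhancement over a 30 min reaction, with the compound-free kit control taken as 100% activity and inhibition relative to it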; settings: for Tub %inh / Tub. enzyme inhibition assay %inhibition: 30 min; for Tub %inh: YB-EGY run; for Tub K.Activity: EC = 120, YB-EGY run; for IC50: read-out: Tubulin inhibition IC50 ± SEM, triplicate for each tested concentration; for Tub. enzyme inhibition assay %inhibition: codes 522-537 run; for Tub. enzyme inhibition assay K. Activity: control = 120, codes 522-537 run
[8] = test system: four human cancer cell lines (HCT-116, PC-3, MCF-7, MDAMB-231); assay: Antiproliferative assay, mean of four cell lines (GI50); settings: Homo sapiens, read-out: GI50 (average IC50)

Compound: COc1ccc(/C=C/C(=O)c2sc(SCC(=O)Nc3nc(-c4ccc(C)cc4)cs3)nc2C)cc1 [Compound 10o, (E)-2-((5-(3-(4-methoxyphenyl)acryloyl)-4-methylthiazol-2-yl)thio)-N-(4-(p-tolyl)thiazol-2-yl)acetamide]
- Average of Relative viability of cells (%) (breast - MCF-7; MCF-7, 1.56 µM): 73.4%
- Average of Relative viability of cells (%) (breast - MCF-7; MCF-7, 3.125 µM): 61.6%
- Average of Relative viability of cells (%) (breast - MCF-7; MCF-7, 6.25 µM): 45.1%
- Average of Relative viability of cells (%) (breast - MCF-7; MCF-7, 12.5 µM): 29.7%
- Average of Relative viability of cells (%) (breast - MCF-7; MCF-7, 25 µM): 20.3%
- Average of Relative viability of cells (%) (breast - MCF-7; MCF-7, 50 µM): 11.9%
- Average of Relative viability of cells (%) (breast - MCF-7; MCF-7, 100 µM): 7.2%
- IC50 (breast - MCF-7): 5 ± 0.4 µM
- Bax Conc [2]: 285 pg/mL and 285 ± 7 pg/mL
- Bax Fold change [2]: 35 fold
- Caspase-3 Conc [3]: 605 ± 5 pg/mL
- Caspase-3 Fold change [3]: 9 fold
- More potency than sorafenib, MDAMB-231 (pancreatic - MDAMB-231; MDAMB-231 cancer cell line): 2.7 fold
- IC50 (pancreatic - MDAMB-231): 3 ± 0.1 µM
- Average of Relative viability of cells (%) (- MDAMB-231; MDAMB-231, 1.56 µM): 61.2%
- Average of Relative viability of cells (%) (- MDAMB-231; MDAMB-231, 3.125 µM): 47.1%
- Average of Relative viability of cells (%) (- MDAMB-231; MDAMB-231, 6.25 µM): 37.3%
- Average of Relative viability of cells (%) (- MDAMB-231; MDAMB-231, 12.5 µM): 26.7%
- Average of Relative viability of cells (%) (- MDAMB-231; MDAMB-231, 25 µM): 17.6%
- Average of Relative viability of cells (%) (- MDAMB-231; MDAMB-231, 50 µM): 10.2%
- Average of Relative viability of cells (%) (- MDAMB-231; MDAMB-231, 100 µM): 4.5%
- viability at 96 h, 50 µM [4]: 90%
- Bcl-2 Conc [5]: 1.05 ng/mL
- Bcl-2 Fold reduction [5]: 5 fold
- Average of Relative viability of cells (%) (prostatic - PC-3; PC-3, 1.56 µM): 99.3%
- Average of Relative viability of cells (%) (prostatic - PC-3; PC-3, 3.125 µM): 87.4%
- Average of Relative viability of cells (%) (prostatic - PC-3; PC-3, 6.25 µM): 61.1%
- Average of Relative viability of cells (%) (prostatic - PC-3; PC-3, 12.5 µM): 48.2%
- Average of Relative viability of cells (%) (prostatic - PC-3; PC-3, 25 µM): 31.6%
- Average of Relative viability of cells (%) (prostatic - PC-3; PC-3, 50 µM): 23.7%
- Average of Relative viability of cells (%) (prostatic - PC-3; PC-3, 100 µM): 14.3%
- IC50 (prostatic - PC-3): 13 ± 1 µM
- Average of Relative viability of cells (%) (colon - HCT-116; HCT-116, 1.56 µM): 89.1%
- Average of Relative viability of cells (%) (colon - HCT-116; HCT-116, 3.125 µM): 66.5%
- Average of Relative viability of cells (%) (colon - HCT-116; HCT-116, 6.25 µM): 51.6%
- Average of Relative viability of cells (%) (colon - HCT-116; HCT-116, 12.5 µM): 24.5%
- Average of Relative viability of cells (%) (colon - HCT-116; HCT-116, 25 µM): 22.7%
- Average of Relative viability of cells (%) (colon - HCT-116; HCT-116, 50 µM): 15.2%
- Average of Relative viability of cells (%) (colon - HCT-116; HCT-116, 100 µM): 7.8%
- IC50 (colon - HCT-116): 6 ± 0.4 µM
- Caspase-9 Conc [6]: 0.90 ng/mL and 0.90 ± 0.10 ng/mL
- Caspase-9 Fold change [6]: 9 fold
- Tub %inh (tubulin [7]; conc 0.1 (unit not given)): 16%
- Tub K.Activity (tubulin [7]; conc 0.1 (unit not given)): 100.77
- Tub %inh (tubulin [7]; conc 1 (unit not given)): 34%
- Tub K.Activity (tubulin [7]; conc 1 (unit not given)): 79.173
- Tub %inh (tubulin [7]; conc 10 (unit not given)): 54.8%
- Tub K.Activity (tubulin [7]; conc 10 (unit not given)): 54.254
- Tub %inh (tubulin [7]; conc 50 (unit not given)): 76.2%
- Tub K.Activity (tubulin [7]; conc 50 (unit not given)): 28.504
- Tub %inh (tubulin [7]; conc 100 (unit not given)): 90.9%
- Tub K.Activity (tubulin [7]; conc 100 (unit not given)): 10.964
- IC50 (tubulin [7]): 3.62 ± 0.11 µM
- IC50 [8]: 7 µM

Compound: Cc1ccc(/C=C/C(=O)c2sc(SCC(=O)Nc3nccs3)nc2C)cc1 [Compound 13d, (E)-2-((4-methyl-5-(3-(p-tolyl)acryloyl)thiazol-2-yl)thio)-N-(thiazol-2-yl)acetamide]
- Average of Relative viability of cells (%) (breast - MCF-7; MCF-7, 1.56 µM): 88.6%
- Average of Relative viability of cells (%) (breast - MCF-7; MCF-7, 3.125 µM): 71.2%
- Average of Relative viability of cells (%) (breast - MCF-7; MCF-7, 6.25 µM): 45.2%
- Average of Relative viability of cells (%) (breast - MCF-7; MCF-7, 12.5 µM): 32.4%
- Average of Relative viability of cells (%) (breast - MCF-7; MCF-7, 25 µM): 24.5%
- Average of Relative viability of cells (%) (breast - MCF-7; MCF-7, 50 µM): 17.1%
- Average of Relative viability of cells (%) (breast - MCF-7; MCF-7, 100 µM): 8.3%
- IC50 (breast - MCF-7): 7 ± 0.4 µM
- Bax Conc [2]: 320 pg/mL and 320 ± 8 pg/mL
- Bax Fold change [2]: 40 fold
- Caspase-3 Conc [3]: 690 ± 5 pg/mL
- Caspase-3 Fold change [3]: 11 fold
- Caspase-3 Fold change ([3]; listed as 13g): ~10 fold
- IC50 (pancreatic - MDAMB-231): 5 ± 0.3 µM
- Average of Relative viability of cells (%) (- MDAMB-231; MDAMB-231, 1.56 µM): 71.2%
- Average of Relative viability of cells (%) (- MDAMB-231; MDAMB-231, 3.125 µM): 57.9%
- Average of Relative viability of cells (%) (- MDAMB-231; MDAMB-231, 6.25 µM): 45.6%
- Average of Relative viability of cells (%) (- MDAMB-231; MDAMB-231, 12.5 µM): 35.2%
- Average of Relative viability of cells (%) (- MDAMB-231; MDAMB-231, 25 µM): 15.6%
- Average of Relative viability of cells (%) (- MDAMB-231; MDAMB-231, 50 µM): 11.3%
- Average of Relative viability of cells (%) (- MDAMB-231; MDAMB-231, 100 µM): 7.5%
- viability at 96 h, 50 µM [4]: 90%
- Bcl-2 Conc [5]: 0.80 ng/mL
- Bcl-2 Fold reduction [5]: 6 fold
- Average of Relative viability of cells (%) (prostatic - PC-3; PC-3, 1.56 µM): 97.1%
- Average of Relative viability of cells (%) (prostatic - PC-3; PC-3, 3.125 µM): 83.3%
- Average of Relative viability of cells (%) (prostatic - PC-3; PC-3, 6.25 µM): 57.8%
- Average of Relative viability of cells (%) (prostatic - PC-3; PC-3, 12.5 µM): 35.6%
- Average of Relative viability of cells (%) (prostatic - PC-3; PC-3, 25 µM): 20.5%
- Average of Relative viability of cells (%) (prostatic - PC-3; PC-3, 50 µM): 19.4%
- Average of Relative viability of cells (%) (prostatic - PC-3; PC-3, 100 µM): 7.6%
- IC50 (prostatic - PC-3): 9 ± 0.8 µM
- Average of Relative viability of cells (%) (colon - HCT-116; HCT-116, 1.56 µM): 90.6%
- Average of Relative viability of cells (%) (colon - HCT-116; HCT-116, 3.125 µM): 69.8%
- Average of Relative viability of cells (%) (colon - HCT-116; HCT-116, 6.25 µM): 63.9%
- Average of Relative viability of cells (%) (colon - HCT-116; HCT-116, 12.5 µM): 32.7%
- Average of Relative viability of cells (%) (colon - HCT-116; HCT-116, 25 µM): 26.5%
- Average of Relative viability of cells (%) (colon - HCT-116; HCT-116, 50 µM): 17.4%
- Average of Relative viability of cells (%) (colon - HCT-116; HCT-116, 100 µM): 9.2%
- IC50 (colon - HCT-116): 9 ± 0.9 µM
- Caspase-9 Conc [6]: 1.50 ng/mL and 1.50 ± 0.10 ng/mL
- Caspase-9 Fold change [6]: 15 fold
- Tub. enzyme inhibition assay %inhibition (tubulin [7]; conc 0.01 (unit not given)): 6.76%
- Tub. enzyme inhibition assay K. Activity (tubulin [7]; conc 0.01 (unit not given)): 111.89
- Tub. enzyme inhibition assay %inhibition (tubulin [7]; conc 0.1 (unit not given)): 21%
- Tub. enzyme inhibition assay K. Activity (tubulin [7]; conc 0.1 (unit not given)): 94.779
- Tub. enzyme inhibition assay %inhibition (tubulin [7]; conc 1 (unit not given)): 47.4%
- Tub. enzyme inhibition assay K. Activity (tubulin [7]; conc 1 (unit not given)): 63.07
- Tub. enzyme inhibition assay %inhibition (tubulin [7]; conc 10 (unit not given)): 68.5%
- Tub. enzyme inhibition assay K. Activity (tubulin [7]; conc 10 (unit not given)): 37.815
- Tub. enzyme inhibition assay %inhibition (tubulin [7]; conc 100 (unit not given)): 87%
- Tub. enzyme inhibition assay K. Activity (tubulin [7]; conc 100 (unit not given)): 15.546
- IC50 (tubulin [7]): 3.68 ± 0.14 µM
- Tub. (IC50) IC50±SD (tubulin [7]; supplement raw data, lab codes): 1.53 ± 0.06 µg/mL
- IC50 [8]: 8 µM

Compound: COc1cc(-c2csc(NC(=O)CNc3ccc([N+](=O)[O-])cc3)n2)cc(OC)c1OC [IV]
- IC50 (tubulin [1]): 2 ± 0.12 µM
